# Structures can show the parent of a compound that is named as a salt.
# Target: T1, SAA binding to purified THP-1 cell membranes (Homo sapiens, UniProt P0DJI8)
# T1 sequence (P0DJI8 19-122): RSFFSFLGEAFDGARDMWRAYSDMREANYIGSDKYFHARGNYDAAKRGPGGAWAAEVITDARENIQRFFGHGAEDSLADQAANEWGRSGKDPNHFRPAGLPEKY
# Test: Inhibition of SAA binding to purified cell membranes (ELISA)
# Details: purified cell membranes (THP-1 per Example 54), hydrochloride, read-out: Serum Amyloid A/Membrane Activity (IC-50)
# Protocol: THP-1 (human acute monocyte leukemia cell line; ATCC cat. no. TIB-202) cell membranes were prepared by differential centrifugation as follows. THP-1 cell was grown in RPMI 1640 media (GIBCO Cat. No. 21875034, supplemented with 10% FBS) at 37 degree Celsius 5% CO2 atmosphere, harvested, and stored at −80 degree Celsius. Frozen THP-1 cells were homogenized in HEPES-Buffered sucrose (0.32M sucrose, 4 mM HEPES pH7.4, protease inhibitors) with a motor driven glass-teflon homogenizer. After removing nuclear and cell debris by centrifugation of homogenates at 1,000×g for 10 min at 4 degree Celsius, post-nuclear supernatant was centrifuged at 10,000×g for 15 minutes to remove mitochondrial fraction. Resulting supernatant was centrifuged at 100,000×g for 30 minutes to yield the crude membrane pellet. Crude membrane pellet was re-suspended in 0.32M sucrose, then centrifuged again at 100,000 xg for 30 minutes to yield washed membrane pellet. Membrane pellet was resuspended in sterile PBS (pH7.4), quickly frozen and kept in aliquots at −80 degrees Celsius. This preparation contains mostly cell membranes. Protein concentration was measured with BCA protein assay kit (Pierce Cat. No. 23227). The binding assay was performed as described in Example 48, with the following modifications. Following to coating the plates with purified human THP-1 cell membranes at 0.01 mg/ml concentration, plates were washed and blocked with 2% milk as described. The compounds were dissolved in DMSO at 10 mM final concentration and further diluted prior to assay. DMSO concentration in the screening well was up to 2%. Individual compounds were co-incubated with SAA on plates coated with cell membranes. SAA from PreProtech (NJ, USA, Cat. No. 300-53) was dissolved in DMSO, quickly frozen and kept in aliquots at −80 degrees Celsius. SAA dissolved in Tris Buffer (pH 6.5, supplemented with BSA, 0.1%) was added to the ELISA plate (100 μl per well) and incubated for 2 hours at RT with gentle shaking. Following the incubation, the plate was washed with de-ionized water and three times with TBS (pH 6.5) plus Tween. Bound SAA was detected by Anti-SAA Monoclonal Antibody (R&D System Cat. No. MAB30192, followed by secondary anti-IgG antibody conjugated to HRP (R&D System, Cat. No. HAF007). Antibody was diluted in TBS antibody buffer (pH6.5 supplemented with 1% BSA). Following each incubation with antibody, the plate was washed with de-ionized water and three times with TBS (pH6.5) wash buffer containing 0.1% Tween. Following to color development with TMB, as described in Example 49, the Optical Density of the samples was measured at 450 nm using an ELISA plate reader. Following color development, the % inhibition compared to control (no compound, DMSO control) for every compound was determined.
# For each compound IC-50 value is shown in μM (micromolar). In some cases IC-50 was not measured and % inhibition at 30 μM compound concentration is shown instead. […] All assays were done on 96-well plates in duplicates and experiments were repeated at least twice. In the Table, the following abbreviations are used: A: compounds that inhibited>30% at 30 μM concentrations; B: compounds that inhibited<30% at 30 μM concentrations; NT: compounds for which inhibition curve was not obtained.
row,SMILES,IC50
1,"C/C(=N\Nc1ncnc2cc(Cl)ccc12)c1ccc(-n2cc(C)nc2C)nc1 [Compound 27, (E)-7-chloro-4-(2-(1-(6-(2,4-dimethyl-1H-imidazol-1-yl)pyridin-3-yl)ethylidene)hydrazineyl)quinazoline hydrochloride]",14 µM

# Same assay, conditions: purified cell membranes (THP-1 per Example 54), read-out: Serum Amyloid A/Membrane Activity (IC-50)
row,IC50,SMILES
1,12.3 µM,"Cc1cc(-n2ccnc2)ccc1/C=N/Nc1ccnc2cc(Cl)ccc12 [Compound 1, (E)-4-((E)-(4-(1H-imidazol-1-yl)-2-methylbenzylidene)hydrazono)-7-chloro-1,4-dihydroquinoline]"
2,47.8 µM,"C/C(=N\Nc1ncnc2cc(F)ccc12)c1ccc(-n2cnc(C)c2C)nc1 [Compound 21, (E)-4-(2-(1-(6-(4,5-dimethyl-1H-imidazol-1-yl)pyridin-3-yl)ethylidene)hydrazineyl)-7-fluoroquinazoline]"
3,22.9 µM,"CC(=NNc1ncnc2cc(Cl)ccc12)c1ccnc(-n2cnc(C)c2C)c1 [Compound 28, 7-chloro-4-(2-(1-(2-(4,5-dimethyl-1H-imidazol-1-yl)pyridin-4-yl)ethylidene)hydrazineyl)quinazoline]"
4,13.2 µM,"Clc1ccc2c(Nc3ccc(-n4ccnc4)nc3)ncnc2c1 [Compound 41, N-(6-(1H-imidazol-1-yl)pyridin-3-yl)-7-chloroquinazolin-4-amine]"

row,SMILES,IC50
1,"C/C(=N\Nc1ncnc2cc(Cl)ccc12)c1ccc(-n2cc(C)nc2C)nc1 [Compound 18, (E)-7-chloro-4-(2-(1-(6-(2,4-dimethyl-1H-imidazol-1-yl)pyridin-3-yl)ethylidene)hydrazineyl)quinazoline phosphoric acid salt]",24 µM
2,"C/C(=N\Nc1nncc2cc(Cl)ccc12)c1ccc(-n2cc(C)nc2C)nc1 [Compound 24, (E)-6-chloro-1-(2-(1-(6-(2,4-dimethyl-1H-imidazol-1-yl)pyridin-3-yl)ethylidene)hydrazineyl)phthalazine]",8.22 µM

# Same assay, conditions: read-out: Serum Amyloid A/Membrane Activity (IC-50), purified cell membranes (THP-1 per Example 54)
row,SMILES,IC50
1,"COc1cc2nccc(N/N=C/c3ccc(-n4ccnc4)c(OC)c3)c2cc1OC [Compound 13, (E)-4-(2-(4-(1H-imidazol-1-yl)-3-methoxybenzylidene)hydrazineyl)-6,7-dimethoxyquinoline phosphate]",44.5 µM
2,"Clc1ccc2c(N/N=C/c3ccc(-n4ccnc4)nc3)ccnc2c1 [Compound 14, (E)-4-(2-((6-(1H-imidazol-1-yl)pyridin-3-yl)methylene)hydrazineyl)-7-chloroquinoline hydrochloride]",27.5 µM
3,"Cc1ncn(-c2ccc(/C=N\Nc3ncnc4cc(Cl)ccc34)cn2)c1C [Compound 15, 7-chloro-4-(2-((6-(4,5-dimethyl-1H-imidazol-1-yl)pyridin-3-yl)methylene)hydrazineyl)quinazoline hydrochloride]",32.5 µM
4,"C/C(=N\Nc1ncnc2cc(Cl)ccc12)c1ccc(-n2cnc(C)c2C)nc1 [Compound 16, 7-chloro-4-(2-(1-(6-(4,5-dimethyl-1H-imidazol-1-yl)pyridin-3-yl)ethylidene)hydrazineyl)quinazoline phosphate]",9.93 µM
5,"Cc1ncn(-c2ccc(Nc3ncnc4cc(Cl)ccc34)cn2)c1C [Compound 25, 7-chloro-N-(6-(4,5-dimethyl-1H-imidazol-1-yl)pyridin-3-yl)quinazolin-4-amine]",22 µM
6,"COc1cc(Nc2nncc3cc(Cl)ccc23)cnc1-n1cnc(C)c1C [Compound 31, 6-chloro-N-(6-(4,5-dimethyl-1H-imidazol-1-yl)-5-methoxypyridin-3-yl)phthalazin-1-amine phosphoric acid salt]",70.8 µM
7,"Clc1ccc2c(Nc3ccc(-n4cncn4)nc3)ncnc2c1 [Compound 34, N-(6-(1H-1,2,4-triazol-1-yl)pyridin-3-yl)-7-chloroquinazolin-4-amine phosphoric acid salt]",8.66 µM
8,"CC(=NNc1ccnc2cc(Cl)ccc12)c1ccc(-n2ccnc2)cc1 [Compound 36, 4-(2-(1-(4-(1H-imidazol-1-yl)phenyl)ethylidene)hydrazineyl)-7-chloroquinoline phosphate]",15.3 µM
9,"Clc1ccc2c(N/N=C/c3ccc(-n4ccnc4)cc3)ccnc2c1 [Compound 38, 4-(2-(4-(1H-imidazol-1-yl)benzylidene)hydrazineyl)-7-chloroquinoline dihydrochloride]",23.6 µM
10,"Clc1ccc2c(Nc3ccc(-n4cncn4)nc3)ccnc2c1 [Compound 44, N-(6-(1H-1,2,4-triazol-1-yl)pyridin-3-yl)-7-chloroquinolin-4-amine]",11.4 µM

# Reference: patent US20240398783A1, “Compounds and Pharmaceutical Compositions Comprising Inhibitors of Amyloid Peptide Interactions with Glycosaminoglycans, Methods of Treatment and Use Thereof” (Gismo Therapeutics, Inc., priority 2021, published 2024)
